Measured values as given in patent US7855076B2, “Use of discoidin domain receptor 1 (DDR1) and agents that affect the DDR1/collagen pathway” (The United States of America as represented by the …, priority 2002, dated 2010).

Legend:
Assay type in all cases: cell-based, human
NF-κB = test: Nuclear translocation of NF-κB by EMSA; settings: DDR1b-overexpressing cells on collagen-coated plates
Method: Nuclear translocation of NF-κB was examined by EMSA. Nuclear extracts were prepared by a method previously reported (Ueda et al., J. Biol. Chem. 272:31092, 1997), and aliquots were frozen at −80° C. For EMSA, end-labeled ^32P-oligonucleotide probes corresponding to the NF-KB binding site of the Ig κ-chain (5′-[…]-3′) (SEQ ID NO: 15) or MCP-1 (A2 site; 5′-[…]-3′) (SEQ ID NO: 16) gene were used. Each probe was incubated with 5 μg of nuclear extracts in 20 μl of binding cocktail (50 mM Tris-HCl, pH 7.4, 25 MM MgCl2, 0.5 mM DTT, 50% glycerol) at 4° C. for 15 minutes. The DNA-protein complexes were resolved on a 5% polyacrylanide gel. The dried gels were exposed to X-ray films.

THP-1 cells = test: Cytokine and chemokine release from PMA-treated THP-1 cells by ELISA
Method: The production of DDR1a- or 1b-overexpressing THP-1 cells was previously described (Kamohara et al., FASEB J. 15:2724, 2001). Briefly, the human monocytic leukemic cell line, THP-1, was transduced with control retrovirus containing the vector only (mock-transduced) or retrovirus expressing DDR1a or DDR1b. THP-1 cells transduced by each virus were selected with G418, and cloned by limiting dilution. The cloned THP-1 cells were maintained in RPMI 1640 medium supplemented with 100 μg/ml gentamycin and 10% FCS (complete medium). Cells were plated at 1×10^6/ml and treated with PMA (10 nM) for variable times on uncoated or collagen-coated tissue culture plates for quantification of cytokine or chemokine release.
In addition, the concentration of MCP-1 in the culture supernatant of each cell line was measured by ELISA. The concentration of MCP-1 was measured in the Lymphokine Testing Laboratory, Clinical Services Program, SAIC-Frederick (Frederick, Md.) by using an enzyme-linked immunosorbent assay (ELISA) kit (R&D Systems, Minneapolis, Minn.) specific for the chemokine.
In addition, the concentrations of IL-1β, IL-8, and MIP-1α in the culture supernatants of each cell line were quantified by ELISA (FIG. 6). The concentration of IL-1β, IL-8, and MIP-1α were measured in the Lymphokine Testing Laboratory, Clinical Services Program, SAIC-Frederick (Frederick, Md.) by using enzyme-linked immunosorbent assay (ELISA) kits (R&D Systems, Minneapolis, Minn.) specific for each human cytokine and chemokine. […]

[1] = test system: monocyte-derived dendritic cells; test: Flow cytometry of CD80, CD83, CD86, HLA-DR on monocyte-derived DCs
Method: Human PBMC were isolated from leukapheresis preparations obtained by the Blood Bank, Clinical Center, National Institutes of Health (Bethesda, Md.). The leukocyte-rich preparation was overlaid on Accu-prep in 50 ml tubes and the tubes were centrifuged at 800×g for 20 min at room temperature. PBMC fractions were collected, washed once with PBS at room temperature and twice with complete medium at 4° C. and resuspended in the same medium. Monocytes were further purified by using iso-osmotic Percoll gradient. At this stage, the purity of monocytes was higher than 90%. The cells (5×10^5/ml) were allowed to adhere to the surface of 6-well plates. After a 5 hour incubation at 37° C., non-adherent cells were removed, and remaining adherent cells were subjected to the DC (Baggiolini et al., Adv. Immunol. 55:97-179, 1993). Over 95% of the adherent cells were positive for CD14 by flow cytometry analysis. Monocytes were briefly resuspended at a concentration of 1×10^6 cells/ml and cultured in complete medium containing 50 ng/ml GM-CSF and 50 ng/ml IL-4. Cells were cultured for 7 days, with cytokine added every second day, to obtain a population of immature monocyte-derived dendritic cells (DC). For maturation, immature DC (iDC) were treated with TNF-α (50 ng/ml) from day 5 to day 7. Mouse monoclonal anti-DDR1 antibody (513) (5 μg/ml) was used to specifically activate DDR1. Unrelated mouse monoclonal IgM was used as a control.
Monocytes were plated at a density of 5×10^6 cell/ml and incubated for 5 days in the presence of 50 ng/ml GM-CSF and 50 ng/ml IL-4. Cells were cultured for 7 days, with cytokine added every second day, to obtain a population of immature monocyte-derived DCs. For maturation, iDCs were incubated with TNF-α (50 ng/ml) from day 5 to day 7. For activation of DDR1 on DCs, the cells were incubated in the presence of either agonistic anti-DDR1 IgM (513) or control IgM, and the expression of CD80, CD83, CD86, and HLA-DR was measured using a flow cytometer.
A hundred thousand cells were resuspended in 50 μl of cold PBS containing 0.1% sodium azide, […] bovine serum albumin (BSA) and 200 μg/ml of human IgG, and then incubated for 10 minutes on ice. Subsequently, the cells were incubated with antibodies against CD80, CD83, CD86 or HLA-DR for 15 minutes on ice, and followed by washing with PBS. After washing, cells were incubated with FITC-conjugated goat anti-mouse IgG for 15 minutes on ice. At the end of the incubation, PI was added to 100 μM. Cells were washed by PBS, and subsequently analyzed on a FACscan (Becton Dickinson). Dead cells, determined by their PI-staining, were gated out. Results were processed using CellQuest software (Becton Dickinson). For the experiments of p38 MAP kinase inhibition, iDC were pre-treated with SB203580, or DMSO for 30 minutes, and then cultured with TNF-α alone, TNF-α plus 513 agonistic anti-DDR1 IgM (5 μg/ml), or TNF-α plus control IgM (5 μg/ml). These experiments were repeated with cells from three different donors.

[2] = test system: monocyte-derived dendritic cells; test: Allogeneic MLR with monocyte-derived DCs
Method: FIG. 9 is a graph showing the effect of DDR1 antibody on the antigen presenting capacity of DCs.
The most important function of DCs is to present antigens to naïve T cells. […] Human T cells were purified from PBMCs of healthy donors by magnetic separation using CD3^+microbeads (Miltenyi Biotech Inc., Auburn, Calif.). T cells (1×10^5) were placed in 96-well plates with increasing numbers of DC (5×10^2−1×10^4 cells) in 200 μl culture medium. On day four, 1 μCi/well of [^3H]thymidine was added, and incorporation of radioactivity was measured after 15 hours of incubation. All tests were performed in triplicate.

[3] = iDC pre-treated, TNF-α-induced maturation with agonistic anti-DDR1 IgM or control IgM
[4] = DDR1b-overexpressing THP-1 cells, PMA, collagen-coated plates, 48 hours
[5] = DC maturation induced with TNF-α 50 ng/ml

collagen
amount of NF-κB/DNA complex (NF-κB): significantly increased
increase of MCP-1 released on collagen-coated plates (THP-1 cells; PMA-treated DDR1b-overexpressing cells): approximately 7 fold

C[S+]([O-])c1ccc(-c2nc(-c3ccncc3)c(-c3ccc(F)cc3)[nH]2)cc1 (centres unmarked) [SB203580]
increased NF-κB/DNA binding (NF-κB): not affected
expression of CD80 [1, 3]: almost completely inhibited
expression of CD83 [1, 3]: almost completely inhibited
expression of CD86 [1, 3]: almost completely inhibited
expression of HLA-DR [1, 3]: almost completely inhibited
collagen-induced up-regulation of IL-1β release (THP-1 cells; [4]): inhibited
collagen-induced up-regulation of IL-8 release (THP-1 cells; [4]): inhibited
collagen-induced up-regulation of MCP-1 release (THP-1 cells; [4]): inhibited
collagen-induced up-regulation of MIP-1α release (THP-1 cells; [4]): inhibited
capacity to activate allogeneic MLR of TNF-α-induced DCs and its up-regulation by DDR1 activation [2]: almost completely abrogated

TNF-α
expression of CD80 [1, 5]: up-regulated
expression of CD83 [1, 5]: up-regulated
expression of CD86 [1, 5]: up-regulated
expression of HLA-DR [1, 5]: up-regulated
allogeneic MLR by induced mDCs ([2]; cell number-dependent): markedly activated
